Experimental findings from patent US9365853B2, “Matriptase inhibitors and uses thereof against orthomyxoviridae infections” (priority 2011, dated 2016) are described below.

pKi: −log10 of the molar value. Read-outs that look alike come from different tables or passages of the source. Where a SMILES comes first, the peptide text is derived from it. The star is where a group is joined. X1 = N=C(N)NCCC[C@@H](N*)C(=O)c1nc2ccccc2s1; CH2Cl = ClC*

Assay [1] concerns the target Recombinant purified human matriptase (amino acids 596-855) (Homo sapiens (Human), UniProt Q9Y5Y6). Nature of the assay: biochemical. The class given is biochemical.
For assay [2], the target named is T1, matriptase (Homo sapiens (Human), UniProt Q9Y5Y6). Nature of the assay: Ki determination for matriptase (Morrison tight-binding or mixed model, fluorogenic Boc-Gln-Ala-Arg-AMC). Format: biochemical. The conditions noted are these: for reduced potency (lower inhibition) compared to compound 1: matriptase Ki relative to compound 1.
Assay [3] deals with influenza A/Puerto Rico/8/34 virus. The class given is cell-based, influenza A/Puerto Rico/8/34 virus (PR8).
Assay [4] shares this test system. Format: cell-based, influenza A/Puerto Rico/8/34 virus (PR8). The source holds these as a separate data set.
Assay [5] deals with T1, matriptase. Nature of the assay: Matriptase inhibition in cellulo (HEK293 transfected with pcDNA3.1-matriptase, activity in media). Format: cell-based. The conditions noted are these: HEK293, 24 h incubation, read-out: inhibition of matriptase activity in cultured cells. As for the experimental part: Human embryonic kidney cells (HEK293) were transfected with 6 μg of pcDNA3.1™ (Mock) or pcDNA3.1™-matriptase (Matriptase) using Lipofectamine 2000™ reagent (Invitrogen) in 10-cm plates. […] After 24 h incubation, media was incubated with Boc-Gln-Ala-Arg-AMC substrate (50 μM) and fluorescence measured for 20 minutes at 37° C. Enzyme activity was determined in terms of released fluorescence units per minutes per μl of media for each condition.

The test system of assay [6] is influenza A/Puerto Rico/8/34. The class given is cell-based, influenza A/Puerto Rico/8/34 (H1N1).
Assay [7] concerns the target furin (Homo sapiens (Human), UniProt P09958). Briefly: Ki determination, selectivity profile: furin (Boc-Arg-Arg-Val-Arg-AMC). The class given is biochemical. Particulars: furin (protease #7); NI = no inhibition, 10 μM.
Assay [8] concerns the target T1, matriptase. Nature of the assay: siRNA knock-down of matriptase protein expression in Calu-3 cells (Western blot, densitometry). The conditions noted are these: Calu-3, 50 nmol siRNA, 1.5 μl Lipofectamine RNAiMAX, 48 h after transfection. The class given is cell-based. As for the experimental part:
Using RNA interference technology, siRNAs specific to human matriptase were targeted in these cells. Calu-3 cells were transfected with two different siRNAs (50 nmol, S1: s13520 (Ambion) Silencer® Select siRNAs gene symbol ST14; S2: EHU012511 (Sigma-Aldrich) MISSION® esiRNA targeting human ST14 (esiRNA1)) targeted toward matriptase mRNA (target sequence of EHU012511: […] […] […] […] (SEQ ID NO:5)) using various concentrations of Lipofectamine RNAiMAX™ (0.5 to 1.5 μl). Scrambled siRNAs were used as controls. 48 h after transfection, cellular protein extracts were prepared. Extracts were subjected to polyacrylamide gel electrophoresis (SDS-PAGE) and transferred to nitrocellulose membranes. Membranes were probed for matriptase protein expression using a rabbit anti-human matriptase-specific antibody. Membranes were blocked using non-fat dry milk in Tris-Buffered Saline (TBS) with Tween™ 20. Membranes were then labeled with a rabbit anti-human matriptase-specific antibody (Bethyl Laboratories Inc.).

Assay [9] concerns the target T1, matriptase. Nature of the assay: Dissociation of enzyme:inhibitor complex by dilution recovery experiments. Format: biochemical. The conditions noted are these: matriptase 0.5 μM pre-incubated 20 minutes, diluted 1:2000.
Method: Dissociation of the enzyme-inhibitor (EI) complex was investigated using dilution recovery experiments. […] Complexes were rapidly (1:2000) diluted in a reaction buffer containing 400 μM of Boc-Gln-Ala-Arg-AMC (˜7 times Km). Activity was continuously recorded for 75 minutes and fluorescence plotted as a function of time.

Recombinant purified human matriptase (amino acids 596-855), sequence (Q9Y5Y6 596-855 limits assumed): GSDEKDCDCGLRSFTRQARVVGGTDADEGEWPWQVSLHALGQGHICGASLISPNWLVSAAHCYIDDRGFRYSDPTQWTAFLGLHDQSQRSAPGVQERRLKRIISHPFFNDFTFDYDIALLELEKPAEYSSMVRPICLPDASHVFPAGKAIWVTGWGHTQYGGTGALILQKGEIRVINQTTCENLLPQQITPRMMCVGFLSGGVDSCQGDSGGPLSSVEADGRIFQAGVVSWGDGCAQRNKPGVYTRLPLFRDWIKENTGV
furin, sequence (P09958 108-794 limits assumed): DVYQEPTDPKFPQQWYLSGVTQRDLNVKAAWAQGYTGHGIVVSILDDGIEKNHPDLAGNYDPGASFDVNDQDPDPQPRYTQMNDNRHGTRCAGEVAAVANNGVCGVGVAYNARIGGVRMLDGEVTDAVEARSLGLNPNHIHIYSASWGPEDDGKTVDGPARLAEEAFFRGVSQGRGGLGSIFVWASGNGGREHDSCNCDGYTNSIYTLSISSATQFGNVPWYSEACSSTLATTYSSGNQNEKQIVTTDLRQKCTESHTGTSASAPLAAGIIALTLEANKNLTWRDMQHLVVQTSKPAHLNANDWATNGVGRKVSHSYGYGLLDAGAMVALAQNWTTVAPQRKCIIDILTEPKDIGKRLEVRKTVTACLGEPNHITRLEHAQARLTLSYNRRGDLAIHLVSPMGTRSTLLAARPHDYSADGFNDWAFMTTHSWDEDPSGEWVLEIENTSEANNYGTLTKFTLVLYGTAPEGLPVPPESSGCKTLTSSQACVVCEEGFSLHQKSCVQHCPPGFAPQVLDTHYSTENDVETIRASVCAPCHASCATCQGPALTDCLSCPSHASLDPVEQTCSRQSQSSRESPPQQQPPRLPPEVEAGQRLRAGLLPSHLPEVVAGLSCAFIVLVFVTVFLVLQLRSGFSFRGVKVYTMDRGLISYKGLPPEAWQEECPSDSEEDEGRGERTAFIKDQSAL

As to `CC(NC(=O)C(CCC(N)=O)NC(=O)C(N)CCCNC(=N)N)C(=O)NC(CCCCN)C(=O)c1nc2ccccc2s1` (centres unmarked) [Compound 3, N-(1-{[6-amino-1-(1,3-benzothiazol-2-yl)-1-oxohexan-2-yl]carbamoyl}ethyl)-2-(2-amino-5-carbamimidamidopentanamido)pentanediamide], the inhibition (usually the share of the control response that was lost under treatment) at 1 µM in assay [1] (read-out: inhibition of matriptase activity) was about 25%. The “decrease of the Ki relative to compound 1” value in [2] is listed as “about 3 orders of magnitude”.
As to `C[C@H](NC(=O)[C@H](CCC(N)=O)NC(=O)[C@@H](N)CCCNC(=N)N)C(=O)N[C@@H](CCCNC(=N)N)C(=O)c1nc2ccccc2s1` [Compound 1, RQAR-ketobenzothiazole], the “influenza replication supported by matriptase” value in [3] (1 μM) and in assay [3] (10 μM) was “completely abrogate” throughout. Further, the “effect on influenza replication with trypsin as the activating protease” value in [4] is given as “no effect”. Besides, the inhibition at 1 µM in assay [5] (1 μM) was about 50%. Moreover, the inhibition at 10 µM in assay [5] (10 μM) was about 100%. Besides, the “block of influenza replication” value in [6] is on record as “more than 50%”. In addition, the “Ki (nM)” value in assay [7] is reported as “no inhibition”. Also, in [1], the “inhibition of matriptase activity” value is on record as “almost completely”.
With `CC(NC(=O)C(CCC(N)=O)NC(=O)C(N)CCCNC(=N)N)C(=O)NC(CCCNC(=N)N)C(O)c1nc2ccccc2s1` (centres unmarked) [Compound 2, 2-(2-amino-5-carbamimidamidopentanamido)-N-(1-{[1-(1,3-benzothiazol-2-yl)-5-carbamimidamido-1-hydroxypentan-2-yl]carbamoyl}ethyl)pentanediamide], in assay [8], the matriptase protein expression result was “significantly blocked”.
On to `C[C@H](NC(=O)[C@H](CCC(N)=O)NC(=O)[C@@H](N)CCCNC(=N)N)C(=O)N[C@@H](CC(=O)O)C(=O)N[C@H](CCCNC(=N)N)C(=O)c1nc2ccccc2s1` [Compound 7] (H-RQAD-X1), for which the “reduced potency (lower inhibition) compared to compound 1” value in assay [2] came out at 400 fold.
In the case of `C[C@H](NC(=O)[C@H](CCC(N)=O)NC(=O)[C@@H](N)CCCNC(=N)N)C(=O)N[C@@H](CCCNC(=N)N)C(O)c1nc2ccccc2s1` (mixture of isomers) [Compound 2, 2-(2-amino-5-carbamimidamidopentanamido)-N-(1-{[1-(1,3-benzothiazol-2-yl)-5-carbamimidamido-1-hydroxypentan-2-yl]carbamoyl}ethyl)pentanediamide], in assay [2], the pKi – broadly, the negative decadic logarithm of the Ki, by convention in mol/L – was 5.21.
Consider `N=C(N)NCCC[C@H](NC(=O)CNC(=O)[C@@H](N)CCC(=O)O)C(=O)CCl` [EGR-CMK, Glu-Gly-Arg chloromethyl ketone] (H-Glu-Gly-Arg-CH2Cl), for which the “dissociation of enzyme:inhibitor complex (reversibility)” value in [9] is listed as “irreversible inhibition”.
For the molecule `CC(=O)NC(CCCNC(=N)N)C(=O)c1nc2ccccc2s1` (centres unmarked) [Compound 6, N-[1-(1,3-benzothiazol-2-yl)-5-carbamimidamido-1-oxopentan-2-yl]acetamide], in [2], the pKi was 6.34 and the “reduced potency (lower inhibition) compared to compound 1” value is given as “over 30,000 fold”. Besides, the mode of inhibition result in [2] (matriptase) is “mixed mode of inhibition”.
